Where two headings read alike, the source gives them in different places.
What was measured:
hTRPA1 [1] = molecular target: T1, hTRPA1 (Homo sapiens, UniProt O75762, K186N); assay: TRPA1 patch clamp (perforated patch, AITC-activated current); format: cell-based
T1 construct: expressed in transfected cells; host or cells: HEK293/TREx (Invitrogen), induced with tetracycline
From the text: Patch clamp experiments permit the detection of currents through the TRPA1 channel in the cell line described above. To permit recording of current at a stable level and prevent the “rundown” observed by other labs, it is necessary to use the perforated patch technique, which prevents dialysis of the cytoplasm with the pipette solution. In normal whole-cell patch clamp recordings, a glass electrode is brought into contact with a single cell and a high-resistance (gigaohm) seal is established with the cell membrane. The membrane is then ruptured to achieve the whole-cell configuration, permitting control of the voltage of the cell membrane and measurement of currents flowing across the membrane using the amplifier attached to the electrode and resulting in the replacement of cytoplasm with the pipette solution. In contrast, in the perforated patch mode, an antibiotic, amphotericin, is present in the pipette solution and diffuses into contact with the cell after the seal is achieved, over the course of several minutes. The amphotericin forms ion-permeable pores in the membrane under the pipette, permitting passage of some ions but maintaining most native cytosolic components. A perfusion system permits control of the extracellular solution, including the addition of blockers and activators of the current. The current can be activated by addition of 5 μM AITC to the solution. […] In some cases, cells were grown in low density overnight on glass coverslips. Patch clamp recordings were made in the whole-cell mode with a holding potential of −40 mV. Every 5 seconds, a voltage ramp was applied from −120 to +100 mV, 400 ms in duration. Currents elicited were quantified at −80 mV and +80 mV. […] The external solution consisted of 150 mM NaCl, 4.5 mM KCl, 3 mM MgCl2, 10 mM HEPES, […], 1 mM EGTA, pH 7.4. Upon addition of AITC, TRPA1 current was induced only in TRPA1-expressing cells and not in parental HEK293 TREx cells. Removal of the AITC stimulus causes most of the current to go away. Potential blockers were tested for ability to block both inward and outward currents in the continued presence of AITC.

hTRPA1 [2] = molecular target: T1, hTRPA1; assay: High throughput Ca2+ fluorescence (Fluo4) assay, AITC stimulation; format: cell-based
In short: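 Read-out is Fluo4 fluorescence, proportional to [Ca2+]i, over ~3 min after AITC challenge, following 2 min compound pre-exposure in HEK293/TREx cells induced with 1 μg/ml tetracycline. Dye: 1 μM, 60 min, room temperature.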

hERG = hERG (Homo sapiens, UniProt Q12809); assay: hERG patch clamp (Qpatch) selectivity; conditions: for selectivity ratio: human, selective for TRPA1 over hERG
hNaV1.2 = hNaV1.2 (Homo sapiens, UniProt Q99250); assay: hNaV1.2 patch clamp (Qpatch) selectivity; format: cell-based
[3] = Table 1, read-out: hTRPA1 Patch IC50
[4] = Table 1, read-out: hTRPA1 Fluo4 IC50
[5] = Table 2, inward current, read-out: hTRPA1 Patch Inwd IC50
[6] = Table 2, read-out: hTRPA1 Fluor IC50
[7] = Table 2, read-out: hNaV1.2 IC50

T1 sequence (O75762 whole entry K186N): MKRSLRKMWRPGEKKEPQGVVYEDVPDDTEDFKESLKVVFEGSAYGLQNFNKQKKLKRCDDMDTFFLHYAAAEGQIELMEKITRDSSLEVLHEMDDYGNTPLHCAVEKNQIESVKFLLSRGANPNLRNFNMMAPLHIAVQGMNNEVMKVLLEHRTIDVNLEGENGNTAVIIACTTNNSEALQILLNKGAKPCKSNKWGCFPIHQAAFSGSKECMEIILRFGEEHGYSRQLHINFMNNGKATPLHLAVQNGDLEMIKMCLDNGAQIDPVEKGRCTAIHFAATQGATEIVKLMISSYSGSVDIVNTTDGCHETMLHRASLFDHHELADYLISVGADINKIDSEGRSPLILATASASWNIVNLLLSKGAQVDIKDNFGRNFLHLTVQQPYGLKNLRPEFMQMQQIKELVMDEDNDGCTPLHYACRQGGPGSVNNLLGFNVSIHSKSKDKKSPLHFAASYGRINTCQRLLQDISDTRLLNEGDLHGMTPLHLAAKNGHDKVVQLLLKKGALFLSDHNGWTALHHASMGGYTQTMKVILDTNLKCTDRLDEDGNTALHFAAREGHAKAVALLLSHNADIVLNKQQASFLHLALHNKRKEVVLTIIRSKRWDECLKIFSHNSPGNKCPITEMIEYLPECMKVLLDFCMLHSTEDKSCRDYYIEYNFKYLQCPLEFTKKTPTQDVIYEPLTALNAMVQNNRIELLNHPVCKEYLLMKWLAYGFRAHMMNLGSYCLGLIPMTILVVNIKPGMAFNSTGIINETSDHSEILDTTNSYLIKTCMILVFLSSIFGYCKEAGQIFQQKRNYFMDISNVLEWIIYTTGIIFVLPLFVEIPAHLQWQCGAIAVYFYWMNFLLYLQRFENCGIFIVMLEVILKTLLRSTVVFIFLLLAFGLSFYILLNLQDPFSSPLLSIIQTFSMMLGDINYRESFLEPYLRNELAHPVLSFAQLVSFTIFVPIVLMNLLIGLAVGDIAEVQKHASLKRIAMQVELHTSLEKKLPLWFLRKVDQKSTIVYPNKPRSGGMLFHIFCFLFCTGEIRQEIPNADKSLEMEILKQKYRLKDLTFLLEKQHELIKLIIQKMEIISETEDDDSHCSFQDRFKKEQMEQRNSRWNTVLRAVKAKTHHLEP
Sequence of hERG (Q12809 whole entry): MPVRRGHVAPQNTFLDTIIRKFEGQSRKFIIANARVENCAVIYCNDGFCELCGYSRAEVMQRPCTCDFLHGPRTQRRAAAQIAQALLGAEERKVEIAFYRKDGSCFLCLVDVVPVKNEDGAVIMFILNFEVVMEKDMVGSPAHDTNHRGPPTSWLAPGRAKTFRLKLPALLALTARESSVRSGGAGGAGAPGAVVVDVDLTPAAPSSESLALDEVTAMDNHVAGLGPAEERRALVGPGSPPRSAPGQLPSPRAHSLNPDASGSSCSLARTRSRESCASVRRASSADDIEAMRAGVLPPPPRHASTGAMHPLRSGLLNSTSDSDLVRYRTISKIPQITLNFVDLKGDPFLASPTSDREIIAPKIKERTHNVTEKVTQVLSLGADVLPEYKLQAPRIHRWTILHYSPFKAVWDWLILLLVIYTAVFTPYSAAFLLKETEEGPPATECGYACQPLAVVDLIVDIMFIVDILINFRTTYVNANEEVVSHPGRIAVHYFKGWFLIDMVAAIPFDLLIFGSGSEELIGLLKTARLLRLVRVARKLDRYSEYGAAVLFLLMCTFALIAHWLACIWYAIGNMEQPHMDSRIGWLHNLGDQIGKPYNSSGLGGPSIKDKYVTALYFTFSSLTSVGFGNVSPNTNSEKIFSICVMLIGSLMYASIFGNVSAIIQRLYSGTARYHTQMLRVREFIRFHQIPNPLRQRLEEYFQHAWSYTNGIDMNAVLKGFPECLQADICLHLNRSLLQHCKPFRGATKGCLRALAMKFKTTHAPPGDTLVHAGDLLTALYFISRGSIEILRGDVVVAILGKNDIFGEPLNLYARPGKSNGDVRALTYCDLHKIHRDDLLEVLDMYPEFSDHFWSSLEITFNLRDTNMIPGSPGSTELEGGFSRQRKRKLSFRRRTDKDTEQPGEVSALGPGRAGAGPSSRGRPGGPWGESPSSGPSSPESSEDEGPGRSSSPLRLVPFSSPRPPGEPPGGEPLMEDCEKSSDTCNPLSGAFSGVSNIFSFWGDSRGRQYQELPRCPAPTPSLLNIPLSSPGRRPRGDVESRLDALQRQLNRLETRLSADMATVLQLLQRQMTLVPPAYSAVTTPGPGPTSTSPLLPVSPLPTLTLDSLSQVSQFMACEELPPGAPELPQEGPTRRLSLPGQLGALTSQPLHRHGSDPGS
Sequence of hNaV1.2 (Q99250 whole entry): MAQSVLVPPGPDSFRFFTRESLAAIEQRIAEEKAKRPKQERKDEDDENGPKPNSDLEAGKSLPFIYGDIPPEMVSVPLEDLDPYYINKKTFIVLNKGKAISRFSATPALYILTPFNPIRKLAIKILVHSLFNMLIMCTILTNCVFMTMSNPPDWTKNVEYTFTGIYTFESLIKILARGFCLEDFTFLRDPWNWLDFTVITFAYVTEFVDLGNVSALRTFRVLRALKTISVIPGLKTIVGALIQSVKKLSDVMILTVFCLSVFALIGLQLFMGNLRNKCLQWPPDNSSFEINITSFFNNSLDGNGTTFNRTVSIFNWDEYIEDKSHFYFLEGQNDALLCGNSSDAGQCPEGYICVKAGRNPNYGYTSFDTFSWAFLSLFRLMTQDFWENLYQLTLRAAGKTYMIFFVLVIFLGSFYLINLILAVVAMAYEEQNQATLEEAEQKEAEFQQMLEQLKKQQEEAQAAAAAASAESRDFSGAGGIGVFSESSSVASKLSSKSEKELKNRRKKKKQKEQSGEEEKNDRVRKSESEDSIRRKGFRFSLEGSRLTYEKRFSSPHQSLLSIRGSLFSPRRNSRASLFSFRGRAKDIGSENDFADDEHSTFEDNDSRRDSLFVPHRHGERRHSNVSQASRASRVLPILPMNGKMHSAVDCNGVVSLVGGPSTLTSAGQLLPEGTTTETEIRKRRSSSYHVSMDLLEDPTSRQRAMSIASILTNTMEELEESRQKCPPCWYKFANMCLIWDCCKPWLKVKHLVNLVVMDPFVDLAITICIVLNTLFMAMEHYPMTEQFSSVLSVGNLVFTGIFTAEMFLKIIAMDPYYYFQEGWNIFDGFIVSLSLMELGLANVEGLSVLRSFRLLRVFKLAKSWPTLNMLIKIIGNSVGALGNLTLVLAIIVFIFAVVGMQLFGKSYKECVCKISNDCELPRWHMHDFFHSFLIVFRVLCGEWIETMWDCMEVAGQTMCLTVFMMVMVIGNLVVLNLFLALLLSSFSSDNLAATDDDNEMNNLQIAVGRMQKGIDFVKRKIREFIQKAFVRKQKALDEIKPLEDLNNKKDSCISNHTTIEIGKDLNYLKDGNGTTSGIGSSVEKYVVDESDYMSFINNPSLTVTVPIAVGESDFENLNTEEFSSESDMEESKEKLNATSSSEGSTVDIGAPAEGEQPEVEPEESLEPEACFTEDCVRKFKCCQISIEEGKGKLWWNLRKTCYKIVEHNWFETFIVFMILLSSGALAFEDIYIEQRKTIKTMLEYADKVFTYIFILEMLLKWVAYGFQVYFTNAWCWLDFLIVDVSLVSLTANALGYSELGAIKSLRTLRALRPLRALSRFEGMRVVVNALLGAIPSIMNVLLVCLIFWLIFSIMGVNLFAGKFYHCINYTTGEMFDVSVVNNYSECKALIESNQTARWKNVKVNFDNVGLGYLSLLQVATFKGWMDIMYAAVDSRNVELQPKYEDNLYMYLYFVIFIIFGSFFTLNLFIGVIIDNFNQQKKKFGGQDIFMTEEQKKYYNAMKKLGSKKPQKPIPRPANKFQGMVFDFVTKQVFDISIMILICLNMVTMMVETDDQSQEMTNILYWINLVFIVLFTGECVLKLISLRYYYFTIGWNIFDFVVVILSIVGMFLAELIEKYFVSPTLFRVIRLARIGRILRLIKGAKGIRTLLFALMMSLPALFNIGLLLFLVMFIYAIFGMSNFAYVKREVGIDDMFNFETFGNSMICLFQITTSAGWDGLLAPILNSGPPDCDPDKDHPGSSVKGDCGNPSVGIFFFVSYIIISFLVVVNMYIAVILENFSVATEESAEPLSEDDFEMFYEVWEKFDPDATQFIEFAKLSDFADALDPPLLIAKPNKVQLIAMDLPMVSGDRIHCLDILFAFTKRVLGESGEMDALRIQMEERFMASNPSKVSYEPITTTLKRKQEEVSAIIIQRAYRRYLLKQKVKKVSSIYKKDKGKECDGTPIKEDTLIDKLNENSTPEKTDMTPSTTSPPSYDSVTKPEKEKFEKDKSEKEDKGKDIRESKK

SMILES	IC50 (hTRPA1 [1]; [5]) [µM]	IC50 (hTRPA1 [2]; [6]) [µM]	other results
CCOC(=O)C1=C(c2ccccc2)NC(=S)NC1c1ccccc1Cl (stereo not shown)			IC50 (hTRPA1 [1]; [3]): ≤ 5 µM; IC50 (hTRPA1 [2]; [4]): > 10 µM; IC50 (hERG; hERG Qpatch IC50 (nM), Table 1): ≥ 20000 nM; selectivity ratio (hERG; Table 1): ≥ 10
CCOC(=O)C1=C(c2ccccc2)NC(=S)NC1c1ccccc1Br (stereo not shown)			IC50 (hTRPA1 [1]; [3]): ≤ 5 µM; IC50 (hTRPA1 [2]; [4]): > 10 µM; IC50 (hERG; hERG Qpatch IC50 (nM), Table 1): > 10000 nM; selectivity ratio (hERG; Table 1): ≥ 5
Cn1c(=O)c2c(ncn2CC(=O)Nc2ccc(Br)cc2)n(C)c1=O [Compound 202]	≤ 5	≤ 5	selective for TRPA1 over hERG (hERG; Table 2): ≥ 5 fold; IC50 (hERG; hERG IC50 (nM), Table 2): > 10000 nM
CCC(C)c1ccc(NC(=O)Cn2cnc3c2c(=O)n(C)c(=O)n3C)cc1 (stereo not shown) [Compound 215]	≤ 1	≤ 5	selective for TRPA1 over NaV1.2 (hNaV1.2; Table 2): ≥ 55 fold; IC50 (hNaV1.2; [7]): ≥ 30 µM; IC50 (hERG; hERG IC50 (nM), Table 2): ≥ 10000 nM; selectivity ratio (hERG; Table 2): ≥ 25
Cn1c(=O)c2c(ncn2CC(=O)Nc2ccc(Cl)c(Cl)c2)n(C)c1=O [Compound 217]	≤ 1	≤ 10	selective for TRPA1 over NaV1.2 (hNaV1.2; Table 2): ≥ 50 fold; IC50 (hNaV1.2; [7]): ≥ 30 µM; IC50 (hERG; hERG IC50 (nM), Table 2): ≥ 20000 nM; selectivity ratio (hERG; Table 2): ≥ 45
Cn1c(=O)c2c(ncn2CC(=O)Nc2ccc(Br)cc2)n(C)c1=O [Compound 219]	≤ 5	≤ 5	selective for TRPA1 over NaV1.2 (hNaV1.2; Table 2): ≥ 25 fold; IC50 (hNaV1.2; [7]): ≥ 30 µM; selective for TRPA1 over hERG (hERG; Table 2): ≥ 15 fold; IC50 (hERG; hERG IC50 (nM), Table 2): ≥ 20000 nM
Cn1c(=O)c2c(ncn2CC(=O)Nc2cccc(C(F)(F)F)c2)n(C)c1=O [Compound 226]	≤ 10	≤ 5	selective for TRPA1 over NaV1.2 (hNaV1.2; Table 2): ≥ 5 fold; IC50 (hNaV1.2; [7]): ≥ 30 µM; IC50 (hERG; hERG IC50 (nM), Table 2): > 10000 nM; selectivity ratio (hERG; Table 2): ≥ 2
Cn1c(=O)c2c(ncn2CC(=O)Nc2nc(-c3ccc(Br)cc3)cs2)n(C)c1=O [Compound 232]	≤ 0.5	≤ 1	selective for TRPA1 over NaV1.2 (hNaV1.2; Table 2): ≥ 75 fold; IC50 (hNaV1.2; [7]): ≥ 30 µM; IC50 (hERG; hERG IC50 (nM), Table 2): ≥ 30000 nM; selectivity ratio (hERG; Table 2): ≥ 75
COc1ccc2nc(NC(=O)Cn3cnc4c3c(=O)n(C)c(=O)n4C)sc2c1 [Compound 234]	≤ 10	≤ 5	
CC(C)Cc1nnc(NC(=O)Cn2cnc3c2c(=O)n(C)c(=O)n3C)s1 [Compound 235]	≤ 10	> 10	
Cn1c(=O)c2c(ncn2CC(=O)Nc2ccc3c(c2)OCO3)n(C)c1=O [Compound 237]	≤ 10	> 10	
Cn1c(=O)c2c(ncn2CC(=O)Nc2ccc(Nc3ccccc3)cc2)n(C)c1=O [Compound 250]	≤ 1	≤ 5	
Cn1c(=O)c2c(ncn2CC(=O)Nc2ccc(Cl)cc2)n(C)c1=O [Compound 251]	≤ 1	≤ 5	
Cn1c(=O)c2c(ncn2CC(=O)Nc2ccc(N3CCCCC3)cc2)n(C)c1=O [Compound 252]	≤ 10	≤ 5	
Cn1c(=O)c2c(ncn2CC(=O)Nc2ccc(SC(F)F)cc2)n(C)c1=O [Compound 257]	≤ 1	≤ 1	
COc1ccc(CCNC(=O)Cn2cnc3c2c(=O)n(C)c(=O)n3C)cc1 [Compound 261, 2-(1,3-Dimethyl-2,6-dioxo-1,2,3,6-tetrahydropurin-7-yl)-N-[2-(4-methoxy-phenyl)-ethyl]-acetamide]	≤ 5	≤ 5	
Cn1c(=O)c2c(ncn2CC(=O)Nc2ccc(Oc3ccccc3)cc2)n(C)c1=O [Compound 262]	≤ 0.5	≤ 5	
Cn1c(=O)c2c(ncn2CC(=O)Nc2ccc(C34CC5CC(CC(C5)C3)C4)cc2)n(C)c1=O [Compound 264]	≤ 0.5	≤ 5	
Cc1ccc(Oc2ccc(NC(=O)Cn3cnc4c3c(=O)n(C)c(=O)n4C)cc2)cc1 [Compound 266]	≤ 0.5	≤ 5	
CCOC(=O)C1=C(c2ccccc2)NC(=S)NC1c1cc(O)ccc1Br (stereo not shown) [drawing 49]			IC50 (hTRPA1 [1]; [3]): ≤ 1 µM; IC50 (hTRPA1 [2]; [4]): ≤ 1 µM; selective for TRPA1 over NaV1.2 (hNaV1.2; Table 1): ≥ 40 fold; IC50 (hNaV1.2; Table 1, read-out: hNaV1.2 Qpatch IC50): ≥ 30 µM; IC50 (hERG; hERG Qpatch IC50 (nM), Table 1): ≥ 20000 nM; selectivity ratio (hERG; Table 1): ≥ 30

More lines, main results first:

IC50 (hTRPA1 [1]; [5]) [µM]	IC50 (hTRPA1 [2]; [6]) [µM]	SMILES	other results
≤ 1	≤ 1	Cn1c(=O)c2c(ncn2CC(=O)Nc2ccc(Cl)c(C(F)(F)F)c2)n(C)c1=O [Compound 267]	
≤ 1	> 10	Cn1c(=O)c2c(ncn2CC(=O)NCCc2ccc(Cl)cc2)n(C)c1=O [Compound 268, N-[2-(4-Chlorophenyl)-ethyl]-2-(1,3-dimethyl-2,6-dioxo-1,2,3,6-tetrahydro-purin-7-yl)-acetamide]	
≤ 1	≤ 5	CCCCc1ccc2nc(NC(=O)Cn3cnc4c3c(=O)n(C)c(=O)n4C)sc2c1 [Compound 269]	
≤ 0.5	≤ 5	CCc1ccc(-c2csc(NC(=O)Cn3cnc4c3c(=O)n(C)c(=O)n4C)n2)cc1 [Compound 271]	IC50 (hERG; hERG IC50 (nM), Table 2): ≥ 30000 nM; selectivity ratio (hERG; Table 2): ≥ 150
≤ 1	≤ 5	CCCc1ccc(-c2csc(NC(=O)Cn3cnc4c3c(=O)n(C)c(=O)n4C)n2)cc1 [Compound 274]	
≤ 10	> 10	Cc1ccc(F)cc1NC(=O)Cn1cnc2c1c(=O)n(C)c(=O)n2C [Compound 277]	
≤ 10	≤ 5	Cn1c(=O)c2c(ncn2CC(=O)Nc2ccc(F)c(Cl)c2)n(C)c1=O [Compound 281]	
≤ 0.5	≤ 5	CCOc1ccc(Oc2ccc(NC(=O)Cn3cnc4c3c(=O)n(C)c(=O)n4C)cc2)cc1 [Compound 284]	IC50 (hERG; hERG IC50 (nM), Table 2): ≤ 5000 nM; selectivity ratio (hERG; Table 2): ≥ 10
≤ 1	≤ 5	Cn1c(=O)c2c(ncn2CC(=O)Nc2ccc(-c3ccccc3)cc2)n(C)c1=O [Compound 294]	
≤ 1	≤ 5	Cn1c(=O)c2c(ncn2CC(=O)Nc2cccc(I)c2)n(C)c1=O [Compound 295]	
≤ 10	≤ 5	CC(C(=O)Nc1ccc(Br)cc1)n1cnc2c1c(=O)n(C)c(=O)n2C (stereo not shown) [Compound 296]	
≤ 10	≤ 5	CCc1ccc(NC(=O)C(C)n2cnc3c2c(=O)n(C)c(=O)n3C)cc1 (stereo not shown) [Compound 299]	
≤ 1	≤ 5	CC(C(=O)Nc1ccc(Cl)cc1)n1cnc2c1c(=O)n(C)c(=O)n2C (stereo not shown) [Compound 300]	
≤ 10	> 10	Cn1c(=O)c2c(ncn2CC(=O)Nc2c(Cl)cccc2Cl)n(C)c1=O [Compound 305]	
≤ 10	> 10	Cc1ccccc1CNC(=O)Cn1cnc2c1c(=O)n(C)c(=O)n2C [Compound 313]	
≤ 1	> 10	Cc1ccc(NC(=O)C(C)n2cnc3c2c(=O)n(C)c(=O)n3C)cc1 (stereo not shown) [Compound 315]	
≤ 10	≤ 10	Cn1c(=O)c2c(ncn2CC(=O)NCCSCc2ccccc2)n(C)c1=O [Compound 329]	
≤ 1	≤ 5	Cn1c(=O)c2c(ncn2CC(=O)Nc2ccc(Br)cc2Cl)n(C)c1=O [Compound 333]	
≤ 5	≤ 5	Cn1c(=O)c2c(ncn2CC(=O)Nc2ccc3c(c2)OC2(CCCC2)O3)n(C)c1=O [Compound 344]	
> 10	≤ 5	Cn1c(=O)c2c(ncn2CC(=O)NCC(C)(c2ccccc2)c2ccccc2)n(C)c1=O [Compound 348]	
> 10	> 10	Cn1c(=O)c2c(ncn2CC(=O)Nc2ccccc2N2CCCC2)n(C)c1=O [Compound 350]	
≤ 5	≤ 5	Cn1c(=O)c2c(ncn2CC(=O)Nc2ccc(Br)cc2F)n(C)c1=O [Compound 371]	

Source: US7671061B2, “Methods and compositions for treating pain” (Hydra Biosciences, Inc., priority 2005, dated 2010)
